Measurements taken from PMC4840323, “Plasiatine, an Unprecedented Indole–Phenylpropanoid Hybrid from Plantago asiatica as a Potent Activator of the Nonreceptor Protein Tyrosine Phosphatase Shp2” (Scientific Reports, 2016).

Biological target: T1, Shp2 (Src homology 2-containing phosphotyrosine phosphatase 2) (Homo sapiens, UniProt Q06124)
T1 construct: gene PTPN11; GST-PTP fusion proteins of human Shp2 (residues 205–597)
T1 sequence (Q06124 205-593): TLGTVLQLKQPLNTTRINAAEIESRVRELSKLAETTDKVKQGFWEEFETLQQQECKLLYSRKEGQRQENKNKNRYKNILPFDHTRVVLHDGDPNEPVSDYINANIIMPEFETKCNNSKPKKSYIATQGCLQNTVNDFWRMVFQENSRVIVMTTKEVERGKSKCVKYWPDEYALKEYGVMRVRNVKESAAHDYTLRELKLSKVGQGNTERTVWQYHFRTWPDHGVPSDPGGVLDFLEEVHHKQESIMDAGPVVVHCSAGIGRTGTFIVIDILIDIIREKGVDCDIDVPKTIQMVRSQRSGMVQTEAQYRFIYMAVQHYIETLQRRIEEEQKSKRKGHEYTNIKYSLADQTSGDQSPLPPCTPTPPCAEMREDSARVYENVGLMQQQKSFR
Assay: activation of recombinant GST-Shp2 phosphatase activity, DiFMUP fluorescence assay
Assay type: biochemical

How did the EC50 turn out when `COc1cc([C@H]2Oc3cc4c(cc3[C@@H]2CO)NC(=O)[C@@]4(O)CC#N)ccc1O` [compound 1, plasiatine] was run?
The EC50 was 970 nM.
